Measurements taken from US10208089B2, “Modulation of complement activity” (priority 2014, dated 2019).
Entries after “also recorded” stand apart in the source; their conditions may differ. Read-outs that look alike come from different tables or passages of the source. Starred links: 1 amine or outer side, 2 acyl side, 3 side chain; linkers in the order of their positions; H or OH if unused. Positions of bridges follow the written chain, without caps; N, C: chain ends. Non-standard residues stand in square brackets, D forms with d. Residues, ends and D or L forms follow the SMILES beside them. Trp(7-aza) = N[C@@H](Cc1c[nH]c2ncccc12)C(=O)O; mXylylene = c1cc(C[*:1])cc(C[*:2])c1; Phg = N[C@H](C(=O)O)c1ccccc1; Tle = CC(C)(C)[C@H](N)C(=O)O; NMeS = CN[C@@H](CO)C(=O)O; Nva = CCC[C@H](N)C(=O)O

Assays:
C5 [1] = molecular target: T1, C5 (Homo sapiens, UniProt P01031); test: Human hemolysis assay (RBC lysis assay using complete human sera); type: cell-based; set-up: with complete human sera (Complement Technology, Tyler Tex.) and polypeptides; tissue Complement Technology, Tyler Tex; host or cells: complete human serum; details: inhibition of lysis of antibody-sensitized sheep erythrocytes, complete human sera
T1 sequence (P01031 19-1676): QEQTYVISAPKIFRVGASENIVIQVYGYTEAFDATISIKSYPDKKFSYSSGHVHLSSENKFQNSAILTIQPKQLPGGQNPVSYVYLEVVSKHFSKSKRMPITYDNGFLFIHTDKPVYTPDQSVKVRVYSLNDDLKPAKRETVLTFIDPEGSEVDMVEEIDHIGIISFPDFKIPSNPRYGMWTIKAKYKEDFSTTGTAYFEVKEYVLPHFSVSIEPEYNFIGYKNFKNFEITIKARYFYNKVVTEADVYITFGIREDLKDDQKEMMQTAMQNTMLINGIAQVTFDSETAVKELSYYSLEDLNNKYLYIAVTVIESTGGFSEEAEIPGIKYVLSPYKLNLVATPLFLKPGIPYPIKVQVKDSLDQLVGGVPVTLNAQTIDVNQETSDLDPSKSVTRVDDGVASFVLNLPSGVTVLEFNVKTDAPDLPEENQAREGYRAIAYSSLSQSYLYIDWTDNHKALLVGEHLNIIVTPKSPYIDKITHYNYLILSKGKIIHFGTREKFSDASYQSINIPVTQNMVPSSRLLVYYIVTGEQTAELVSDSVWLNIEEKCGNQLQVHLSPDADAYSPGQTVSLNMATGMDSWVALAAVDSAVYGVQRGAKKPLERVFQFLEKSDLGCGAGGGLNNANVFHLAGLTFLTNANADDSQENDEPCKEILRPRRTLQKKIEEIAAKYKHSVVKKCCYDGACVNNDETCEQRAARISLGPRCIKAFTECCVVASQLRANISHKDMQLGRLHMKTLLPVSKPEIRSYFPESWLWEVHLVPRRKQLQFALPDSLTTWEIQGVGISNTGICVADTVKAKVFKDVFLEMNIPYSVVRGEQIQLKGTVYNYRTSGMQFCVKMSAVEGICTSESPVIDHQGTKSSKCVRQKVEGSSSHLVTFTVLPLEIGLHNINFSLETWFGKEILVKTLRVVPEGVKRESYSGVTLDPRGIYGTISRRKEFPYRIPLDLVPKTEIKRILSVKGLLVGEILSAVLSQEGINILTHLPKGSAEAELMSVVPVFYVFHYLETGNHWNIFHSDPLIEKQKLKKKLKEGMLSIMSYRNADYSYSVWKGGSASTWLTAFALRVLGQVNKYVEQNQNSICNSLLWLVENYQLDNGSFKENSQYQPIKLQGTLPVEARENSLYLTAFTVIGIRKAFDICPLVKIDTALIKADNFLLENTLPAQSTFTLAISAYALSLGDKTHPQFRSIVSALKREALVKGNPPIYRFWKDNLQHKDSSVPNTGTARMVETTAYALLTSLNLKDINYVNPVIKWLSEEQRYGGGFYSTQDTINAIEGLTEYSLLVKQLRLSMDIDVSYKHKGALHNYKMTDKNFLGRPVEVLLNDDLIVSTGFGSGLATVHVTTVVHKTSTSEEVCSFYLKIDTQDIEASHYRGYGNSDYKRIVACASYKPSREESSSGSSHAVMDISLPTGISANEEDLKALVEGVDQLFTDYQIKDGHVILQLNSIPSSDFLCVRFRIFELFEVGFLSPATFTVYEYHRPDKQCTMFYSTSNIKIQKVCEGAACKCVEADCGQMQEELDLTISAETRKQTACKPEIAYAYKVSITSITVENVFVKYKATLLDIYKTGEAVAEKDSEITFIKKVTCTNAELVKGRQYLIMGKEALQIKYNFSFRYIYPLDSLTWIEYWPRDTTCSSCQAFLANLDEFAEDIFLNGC

C5 [2] = molecular target: T1, C5; test: Competitive fluorescence polarization assay with probe R3076; type: binding; set-up: purchased Complement Technology, Tyler, Tex
Experimental: FP allows binding events to be measured in a homogenous solution.
Polarization was measured over time, until binding reached equilibrium. KD was determined using Graphpad Prism (using “Saturating Binding Curves, One Site—Specific Binding With Hill Slope” as the curve fit to determine KD).
10 μl of this working stock was then added to each well in the assay plate. The assay plate was incubated at room temperature, protected from light, for 20 minutes to allow binding to reach equilibrium.
Test articles listed in Table 7 were subsequently diluted in DMSO then assay buffer, comprising 10 2-fold dilutions and were then added to the assay plate in triplicate, rapidly. The assay plate was then incubated in the Paradigm (Molecular Devices, Sunnyvale, Calif.) plate reader for 60 minutes at 25° C.
After incubation for 60 minutes, the plate was read using the Paradigm FP protocol (Molecular Devices, Sunnyvale, Calif.) and raw polarization values were imported into Graphpad Prism.

[3] = average of Exp 1 and Exp 2, read-out: Avg, nM IC50
[4] = competition with probe R3076 25 nM, C5 50 nM, 60 min at 25° C., experiment 1, read-out: IC50 nM, Exp 1
[5] = competition with probe R3076 25 nM, C5 50 nM, 60 min at 25° C., experiment 1, read-out: Ki nM, Exp 1
[6] = competition with probe R3076 25 nM, C5 50 nM, 60 min at 25° C., experiment 2, read-out: IC50 nM, Exp 2
[7] = competition with probe R3076 25 nM, C5 50 nM, 60 min at 25° C., experiment 2, read-out: Ki nM, Exp 2
[8] = average of Exp 1 and Exp 2, read-out: Avg, nM Ki

IC50 (C5 [2]; [3]) | IC50 (C5 [2]; [4]) | Ki (C5 [2]; [5]) | IC50 (C5 [2]; [6]) | Ki (C5 [2]; [7]) | competition with labeled probe / affinity for C5 (in words) (C5 [2]; probe R3076 25 nM, C5 50 nM) | Ki (C5 [2]; probe R3076 25 nM, C5 50 nM, read-out: Ki) | Ki (C5 [2]; [8]) | Compound | IC50 (C5 [1])
68.4 nM | 72.7 nM | 10.4 nM | 64.1 nM | 8.69 nM | most potent | 9.54 nM |  | CCC[C@H](NC(C)=O)C(=O)N[C@@H](CS)C(=O)N[C@@H](Cc1ccc(O)cc1)C(=O)N[C@@H](CCC(=O)O)C(=O)N[C@@H](CC(N)=O)C(=O)N[C@H](C(=O)N[C@@H](Cc1ccc(O)cc1)C(=O)N[C@@H](Cc1c[nH]c2ncccc12)C(=O)N[C@@H](CCC(=O)O)C(=O)N[C@@H](Cc1ccc(O)cc1)C(=O)N1CCC[C@H]1C(=O)N[C@H](C(=O)N1CCC[C@H]1C(N)=O)c1ccccc1)C(C)(C)C [Compound R3003, Ac-Nvl-C-Y-E-N-Tbg-Y-azaTrp-E-Y-P-Phg-P-NH2] (Ac-[Nva]CYEN[Tle]Y[Trp(7-aza)]EYP[Phg]P-NH2) | 13.9 nM
278 nM | 295 nM | 73.2 nM | 261 nM | 86.9 nM | relatively strong affinity |  | 80 nM | CCC[C@H](NC(C)=O)C(=O)N[C@H]1CSCc2cccc(c2)CSC[C@@H](C(=O)N[C@@H](CCC)C(=O)N2CCC[C@H]2C(N)=O)NC(=O)[C@H](Cc2c[nH]cn2)NC(=O)[C@H](CO)N(C)C(=O)[C@H](Cc2ccc(O)cc2)NC(=O)[C@H](CCC(=O)O)NC(=O)[C@H](Cc2c[nH]c3ncccc23)NC(=O)[C@H]([C@@H](C)O)NC(=O)[C@H](c2ccccc2)NC1=O [Compound R3011, [mXylyl(2,10)]Ac-Nvl-C-Phg-T-azaTrp-E-Y-(N-Me)S-H-C-Nvl-P-NH2] (Ac-[Nva]C[Phg]T[Trp(7-aza)]EY[NMeS]HC[Nva]P-NH2; linker 2-10 via mXylylene) | 112 nM
6820 nM | 6060 nM | 1400 nM | 7580 nM | 1590 nM | weak affinity |  | 1490 nM | CCC[C@H](NC(=O)[C@@H]1CCCN1C(=O)[C@H](CCC)NC(=O)[C@@H]1CSCc2cccc(c2)CSC[C@H](NC(C)=O)C(=O)N[C@@H](c2ccccc2)C(=O)N[C@@H]([C@@H](C)O)C(=O)N[C@@H](Cc2c[nH]c3ncccc23)C(=O)N[C@@H](CCC(=O)O)C(=O)N[C@@H](Cc2ccc(O)cc2)C(=O)N(C)[C@@H](CO)C(=O)N[C@@H](Cc2c[nH]cn2)C(=O)N1)C(N)=O [Compound R3014, [mXylyl(1,9)]Ac-C-Phg-T-azaTrp-E-Y-(N-Me)S-H-C-Nvl-P-Nvl-NH2] (Ac-C[Phg]T[Trp(7-aza)]EY[NMeS]HC[Nva]P[Nva]-NH2; linker 1-9 via mXylylene) | 1420 nM

Compound | IC50 (C5 [2]; [3]) | IC50 (C5 [2]; [4]) | Ki (C5 [2]; [5]) | IC50 (C5 [2]; [6]) | Ki (C5 [2]; [7]) | competition with labeled probe / affinity for C5 (in words) (C5 [2]; probe R3076 25 nM, C5 50 nM) | Ki (C5 [2]; probe R3076 25 nM, C5 50 nM, read-out: Ki) | Ki (C5 [2]; [8]) | IC50 (C5 [1])
CCC[C@H](NC(=O)[C@H](Cc1ccc(O)cc1)NC(=O)[C@H](CC(N)=O)NC(=O)[C@H](CCC)NC(=O)[C@H](CCC(=O)O)NC(=O)[C@@H](NC(=O)[C@H](Cc1c[nH]c2ncccc12)NC(=O)[C@@H](NC(=O)[C@H](CS)NC(=O)[C@H](Cc1ccc(O)cc1)NC(=O)[C@@H]1CCCN1C(=O)[C@H](Cc1ccc(O)cc1)NC(C)=O)c1ccccc1)C(C)(C)C)C(=O)N[C@@H](CCC(=O)O)C(N)=O [Compound R3023, Ac-Y-P-Y-C-Phg-azaTrp-Tbg-E-Nvl-N-Y-Nvl-E-NH2] (Ac-YPYC[Phg][Trp(7-aza)][Tle]E[Nva]NY[Nva]E-NH2) | > 1000 nM | > 1000 nM | > 1000 nM | > 1000 nM | > 1000 nM | no activity at the highest concentration tested; also recorded: not detected at the highest concentration tested; also recorded: no affinity |  | > 1000 nM | > 100000 nM
